# Assay results as given in US20100029752A1, “NOVEL COMPOUNDS, PHARMACEUTICAL COMPOSITIONS CONTAINING SAME, AND METHODS OF USE FOR SAME” (priority 2005, published 2010).
# Where two headings read alike, the source gives them in different places.
# Legend:
# [1] = system: Staphylococcus aureus (ATCC # 29213); experiment: Broth microdilution MIC, S. aureus; type: cell-based; details: for MIC: Staphylococcus aureus, ATCC29213
# Protocol: (§1) A broth microdilution assay is used to assess the antimicrobial activity of the compounds. […] Microorganisms tested include Staphylococcus aureus (ATCC # 29213), Enterococcus faecalis (ATCC # 29212), Pseudomonas aeruginosa (ATCC # 27853), and Escherichia coli (ATCC # 25922). The assay is performed in two growth media, Mueller Hinton Broth and Trypticase Soy Broth. A blood (Tsoy/5% sheep blood) agar plate is inoculated from frozen stocks maintained in T soy broth containing 10% glycerol and incubated overnight at 37° C. Colonies are suspended in sterile broth so that the turbidity matches the turbidity of a 0.5 McFarland standard. The inoculum is diluted 1:10 in sterile broth (Mueller Hinton or Trypticase soy) and 195 ul is dispensed per well of a 96-well plate. The compounds to be tested, dissolved in DMSO, are added to the wells in 5 ul volume at the following concentrations: 25, 12.5, 6.25, 3.125, 1.56 and 0.78 ug/ml in duplicate. Additional concentrations are tested if required. 5 ul of DMSO added to duplicate wells are the vehicle control. Serial dilutions of positive control compounds, vancomycin (E. faecalis and S. aureus) and tobramycin (E. coli and P. aeruginosa), are included in each run. After 24 hours of incubation at 37° C., plates are read at OD600 on a Molecular Devices SpectraMax Plus Spectrophotometer. Average OD600 values are computed using SOFTmax Pro Software (Molecular Devices) and MIC values are determined by linear regression analysis using Prism version 3.02 (Graph Pad Software, San Diego). The MIC is defined as the concentration of compound required to produce an OD600 reading equivalent to 10% of the vehicle control reading.
# [2] = system: Pseudomonas aeruginosa (ATCC # 27853); experiment: Broth microdilution MIC, P. aeruginosa; type: cell-based; details: for PSAE/MH (MIC): Mueller Hinton Broth
# Protocol: as §1
# [3] = system: Enterococcus faecalis (ATCC # 29212); experiment: Broth microdilution MIC, E. faecalis; type: cell-based; details: for MIC: Enterococcus faecalis, ATCC29212
# Protocol: as §1
# [4] = system: Escherichia coli (ATCC # 25922); experiment: Broth microdilution MIC, E. coli; type: cell-based; details: for MIC: Escherichia coli, ATCC25922
# Protocol: as §1
# Weight loss screen = type: in vivo, Balb/C mice; details: 60 mg/kg intraperitoneally
# Protocol: Balb/C mice (Jackson Labs) are utilized for the initial weight loss screening. Animals are housed in temperature and 12 hour day/night cycle rooms and fed mouse chow and water ad lib. Three mice are utilized for each compound tested with vehicle controls in triplicate per experiment. For the experiments, mice are housed separately for each compound tested three mice to a cage. Compounds are diluted in DMSO at 10 mg/ml and mice are injected intraperitoneally with 60 mg/kg in approximately 100 μl of DMSO or with vehicle alone. Mice are observed and weighed daily; average weights and standard errors are computed with Excel (Microsoft). The experiment continues until treated animals reach their pretreatment weights. Select compounds are tested in animals housed in metabolic cages. Dosing of animals are identical to the screening experiments with three animals to a single metabolic cage. Animal weights, water and food consumption, and urine and feces production are measured daily.
# FAS = biological target: T1, FAS (Homo sapiens, UniProt P49327); experiment: FAS (IC50) marked (SB); type: biochemical; details: value marked (SB), not defined
# T1 construct: Human FAS was purified from cultured ZR-75-1 human breast cancer cells; endogenous in cells
# [5] = Mueller Hinton Broth, read-out: SA/MH (MIC)
# [6] = Mueller Hinton Broth, read-out: EF/MH (MIC)
# [7] = Trypticase Soy Broth, read-out: EF/Tsoy (MIC)
# T1 sequence (P49327 whole entry): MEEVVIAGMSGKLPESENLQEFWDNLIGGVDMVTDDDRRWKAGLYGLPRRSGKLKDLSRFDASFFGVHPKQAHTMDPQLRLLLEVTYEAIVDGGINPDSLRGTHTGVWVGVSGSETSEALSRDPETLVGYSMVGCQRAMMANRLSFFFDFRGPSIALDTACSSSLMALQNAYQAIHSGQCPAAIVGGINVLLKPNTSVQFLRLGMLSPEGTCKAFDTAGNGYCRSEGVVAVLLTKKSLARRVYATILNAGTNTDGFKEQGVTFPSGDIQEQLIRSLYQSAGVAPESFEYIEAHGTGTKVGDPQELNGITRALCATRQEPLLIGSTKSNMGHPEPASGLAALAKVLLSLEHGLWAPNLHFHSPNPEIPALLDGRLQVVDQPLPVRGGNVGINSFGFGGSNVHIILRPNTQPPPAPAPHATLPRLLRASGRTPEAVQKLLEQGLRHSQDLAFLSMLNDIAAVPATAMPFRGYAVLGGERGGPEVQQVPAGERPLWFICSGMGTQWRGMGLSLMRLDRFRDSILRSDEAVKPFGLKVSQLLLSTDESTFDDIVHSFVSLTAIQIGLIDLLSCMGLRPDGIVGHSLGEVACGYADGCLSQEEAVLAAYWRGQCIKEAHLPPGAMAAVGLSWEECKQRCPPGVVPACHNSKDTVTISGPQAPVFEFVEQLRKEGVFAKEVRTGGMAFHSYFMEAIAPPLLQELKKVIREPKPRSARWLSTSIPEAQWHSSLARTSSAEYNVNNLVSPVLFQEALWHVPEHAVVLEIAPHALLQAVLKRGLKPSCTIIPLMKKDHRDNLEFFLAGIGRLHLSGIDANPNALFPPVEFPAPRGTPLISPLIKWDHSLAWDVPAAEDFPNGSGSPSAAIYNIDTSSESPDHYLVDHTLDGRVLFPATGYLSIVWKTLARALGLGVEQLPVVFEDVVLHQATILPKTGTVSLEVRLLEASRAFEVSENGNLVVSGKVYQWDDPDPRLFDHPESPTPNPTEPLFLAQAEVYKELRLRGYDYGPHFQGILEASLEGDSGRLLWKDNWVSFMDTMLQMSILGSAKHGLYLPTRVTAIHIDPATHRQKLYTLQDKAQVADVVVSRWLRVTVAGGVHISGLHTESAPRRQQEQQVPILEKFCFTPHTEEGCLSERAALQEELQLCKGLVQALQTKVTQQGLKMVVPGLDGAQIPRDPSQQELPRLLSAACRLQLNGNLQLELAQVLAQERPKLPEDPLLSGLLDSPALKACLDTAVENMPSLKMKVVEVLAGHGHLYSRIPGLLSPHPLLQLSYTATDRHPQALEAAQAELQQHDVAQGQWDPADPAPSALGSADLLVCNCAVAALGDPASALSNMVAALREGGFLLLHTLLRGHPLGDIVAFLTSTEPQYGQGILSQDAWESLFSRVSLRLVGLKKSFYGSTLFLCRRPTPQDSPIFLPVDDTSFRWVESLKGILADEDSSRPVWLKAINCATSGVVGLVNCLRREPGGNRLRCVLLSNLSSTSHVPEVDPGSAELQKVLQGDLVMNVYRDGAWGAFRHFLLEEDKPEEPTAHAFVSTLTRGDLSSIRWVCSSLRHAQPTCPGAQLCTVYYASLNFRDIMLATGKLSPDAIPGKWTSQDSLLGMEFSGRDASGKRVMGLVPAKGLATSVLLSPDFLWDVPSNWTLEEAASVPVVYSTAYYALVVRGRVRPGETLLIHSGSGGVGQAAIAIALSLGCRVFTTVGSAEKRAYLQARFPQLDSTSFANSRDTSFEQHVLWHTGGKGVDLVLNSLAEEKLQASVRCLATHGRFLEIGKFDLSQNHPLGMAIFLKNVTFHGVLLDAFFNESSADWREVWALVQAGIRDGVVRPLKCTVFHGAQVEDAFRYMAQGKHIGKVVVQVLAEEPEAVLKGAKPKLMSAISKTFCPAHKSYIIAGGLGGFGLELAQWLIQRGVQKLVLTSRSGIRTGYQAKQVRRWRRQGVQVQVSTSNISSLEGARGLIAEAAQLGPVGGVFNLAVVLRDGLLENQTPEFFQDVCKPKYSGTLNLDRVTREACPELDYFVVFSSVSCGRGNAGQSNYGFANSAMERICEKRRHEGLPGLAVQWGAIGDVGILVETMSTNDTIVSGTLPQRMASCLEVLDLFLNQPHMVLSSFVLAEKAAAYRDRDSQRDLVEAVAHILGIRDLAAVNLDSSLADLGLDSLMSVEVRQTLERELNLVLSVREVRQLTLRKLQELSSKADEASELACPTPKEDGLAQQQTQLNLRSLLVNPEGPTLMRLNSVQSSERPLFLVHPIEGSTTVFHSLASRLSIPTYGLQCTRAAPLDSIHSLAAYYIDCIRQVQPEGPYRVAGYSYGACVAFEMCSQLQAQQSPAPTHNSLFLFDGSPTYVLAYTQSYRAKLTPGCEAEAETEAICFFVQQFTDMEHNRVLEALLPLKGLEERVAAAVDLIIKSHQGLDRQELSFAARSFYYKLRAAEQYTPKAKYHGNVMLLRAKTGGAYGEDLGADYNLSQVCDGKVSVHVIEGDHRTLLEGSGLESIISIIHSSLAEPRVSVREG
Structure (SMILES),"MIC [1, 5] [µg/mL]",SA/Tsoy (MIC) ([1]; Trypticase Soy Broth),PSAE/MH (MIC) [2],PSAE/Tsoy (MIC) ([2]; Trypticase Soy Broth),"MIC [3, 6] [µg/mL]",EF/Tsoy (MIC) ([3]; Trypticase Soy Broth),Ecoli/MH (MIC) ([4]; Mueller Hinton Broth),Ecoli/Tsoy (MIC) ([4]; Trypticase Soy Broth),SA/MH (MIC) ([1]; Mueller Hinton Broth),EF/MH (MIC) ([3]; Mueller Hinton Broth),"MIC [3, 7] [µg/mL]",IC50 (FAS) [µM],"MIC ([1]; Trypticase Soy Broth, read-out: SA/Tsoy (MIC)) [µg/mL]","MIC ([4]; Mueller Hinton Broth, read-out: Ecoli/MH (MIC)) [µg/mL]","MIC ([2]; Pseudomonas aeruginosa, ATCC27853, Trypticase Soy Broth, read-out: PSAE/Tsoy (MIC)) [µg/mL]","MIC ([4]; Trypticase Soy Broth, read-out: Ecoli/Tsoy (MIC)) [µg/mL]",Weight Loss (Weight loss screen; day 1),Weight Loss (Weight loss screen; day 2)
COC(=O)c1sc(C(=O)O)cc1O,149,Neg,Neg,Neg,101,Neg,Neg,Neg,,,,,,,,,,
CCCCCCCCNC(=O)c1cc(O)c(C(=O)OC)s1,,Neg,Neg,Neg,,Neg,Neg,Neg,Neg,Neg,,,,,,,,

# More lines, main results first:
"MIC [1, 5] [µg/mL]",SA/Tsoy (MIC) ([1]; Trypticase Soy Broth),PSAE/MH (MIC) [2],PSAE/Tsoy (MIC) ([2]; Trypticase Soy Broth),"MIC [3, 6] [µg/mL]",EF/Tsoy (MIC) ([3]; Trypticase Soy Broth),Ecoli/MH (MIC) ([4]; Mueller Hinton Broth),Ecoli/Tsoy (MIC) ([4]; Trypticase Soy Broth),SA/MH (MIC) ([1]; Mueller Hinton Broth),EF/MH (MIC) ([3]; Mueller Hinton Broth),"MIC [3, 7] [µg/mL]",IC50 (FAS) [µM],"MIC ([1]; Trypticase Soy Broth, read-out: SA/Tsoy (MIC)) [µg/mL]","MIC ([4]; Mueller Hinton Broth, read-out: Ecoli/MH (MIC)) [µg/mL]","MIC ([2]; Pseudomonas aeruginosa, ATCC27853, Trypticase Soy Broth, read-out: PSAE/Tsoy (MIC)) [µg/mL]","MIC ([4]; Trypticase Soy Broth, read-out: Ecoli/Tsoy (MIC)) [µg/mL]",Structure (SMILES),Weight Loss (Weight loss screen; day 1),Weight Loss (Weight loss screen; day 2)
80,Neg,Neg,Neg,88,,Neg,Neg,,,134,,,,,,C=CCNC(=O)c1cc(O)c(C(=O)OC)s1,60 mg/kg: +2.3% (day 1),
66,,Neg,Neg,,Neg,,Neg,,Neg,,305,227,136,,,COC(=O)c1sc(C(=O)NNc2ccc(Cl)cc2)cc1O,60 mg/kg: +1.2% (day 1),
82,Neg,Neg,(MIC) Neg,,,Neg,,,Neg,123,325,,,83,89,CCCCCCCCNC(=O)c1cc(O)cs1,,60 mg/kg: 1.6% (day 2)
